Where two headings read alike, the source gives them in different places.
Tests used:
[1] = system: human glioblastoma cell lines U-87MG or U-373MG, Kaposi sarcoma cell lines KSY-1 or KS-SLK, malignant melanoma cell line MV3 or BLM, medulloblastoma cell line …; test: Proliferation assay on cell cultures (Example 3); format: cell-based; conditions: cell lines of Example 3 treated with the substance
BLM melanoma cells = test: Cell proliferation studies, BLM cells; format: cell-based, human; conditions: 10^−11-10^−6 M, daily for 7 days
Method: BLM cells were plated at a density of 700 cells/cm^2 in […] in culture medium. Cells were allowed to attach and start growing for 3 days; the seeding media were then changed. Cells were treated daily (the drug was added to the medium every day), for 7 days, with LHRH-A (10^−11-10^−6 M); the medium was changed at every two days. At the end of the treatment, cells were collected and counted by hemocytometer.
To confirm the specificity of the action of LHRH-A on melanoma cell proliferation, it was investigated whether the effects of the LHRH agonist might be counteracted by a potent GnRH antagonist. A preliminary experiment was performed to select the dose of the GnRH antagonist (ANT) to be used. To this purpose, BLM cells were treated daily with ANT at different doses (10^−11-10^−6 M).) Cells were harvested and counted after 7 days of treatment. Subsequently, BLM cells were treated daily, for 7 days, with LHRH-A (10^−7 M), either in the absence or in the presence of ANT (10^−7 M). Cells were counted 7 days after the beginning of the treatment.
All proliferation experiments were performed in four to six replicates. The data obtained from three independent experiments were analyzed according to the Dunnett's test after one-way ANOVA.

BLM cells = test: In vivo study in nude mice inoculated with malignant melanoma, low dosage experiment; conditions: 100 μg per mouse daily, 2-3 weeks
Method: Sixteen male nude mice were injected s.c. in the flank with 1×10^6 (0.2 ml/mouse) BLM cells. The treatment started the same day: Eight mice received daily 100 μg […]® per mouse in 200 μl saline. Eight control mice were treated with 200 μl saline each. The treatment lasted 2-3 weeks. Every 2 to 3 days the volume of the tumors was determined by caliper.

U-87MG cells = format: cell-based, human; conditions: for inhibition versus controls: 7 days
Method: U-87MG cells were plated at a density of 1400 cells/cm^2 in […] in standard culture medium. Cells were allowed to attach and start growing for 3 days; the seeding media were then changed to experimental media. Cells were treated for 7 days with ZOLADEX® (10^−10-10^−6 M); medium was changed every two days. Following treatment, cells were collected and counted by hemocytometer. Data obtained from three independent experiments were analyzed according to the Dunnett's test after one-way ANOVA.

## CC(C)C[C@H](NC(=O)[C@@H](COC(C)(C)C)NC(=O)[C@H](Cc1ccc(O)cc1)NC(=O)[C@H](CO)NC(=O)[C@H](Cc1c[nH]c2ccccc12)NC(=O)[C@H](Cc1cnc[nH]1)NC(=O)[C@@H]1CCC(=O)N1)C(=O)N[C@@H](CCCNC(=N)N)C(=O)N1CCC[C@H]1C(=O)NNC(N)=O [ZOLADEX®, D-Ser(tBu)^6Aza-Gly-LHRH]
[1]
  anti-proliferative effects in tumor cells: Significant anti-proliferative effects
BLM melanoma cells
  cell proliferation: significant and dose-dependent inhibition of cell proliferation
BLM cells
  tumors smaller with respect to the controls: 15-20%
U-87MG cells; 10^−6M
  inhibition versus controls: about 45%
U-87MG cells; 10^−8M
  inhibition versus controls: about 23%
U-87MG cells; significantly effective at 10^−8 to 10^−6 M
  proliferation rate: significant decrease of the proliferation rate
